# Measurements reported in ChEMBL document CHEMBL1240295, “Specificity and mechanism of action of some commonly used protein kinase inhibitors” (Biochem J, 2000).
# How the values were obtained:
# [1] = species: Homo sapiens; assay: Inhibition of His-tagged human CAMK2 expressed in Escherichia coli at 10 uM
# [2] = target: Myosin light chain kinase, smooth muscle (Gallus gallus) (UniProt P11799); assay: Inhibition of chicken SmMLCK expressed in Escherichia coli at 10 uM; details: Ovis aries
# [3] = Inhibition of His-tagged human CAMK2 expressed in Escherichia coli
# [4] = species: Oryctolagus cuniculus; details: at 10 µM
# Description: Inhibition of rabbit MKK1 expressed in Escherichia coli at 10 uM
# [5] = target: Mitogen-activated protein kinase 1 (Homo sapiens) (UniProt P28482); details: at 10 µM
# Description: Inhibition of Gst-tagged human MAPK2/ERK2 expressed in Escherichia coli at 10 uM
# [6] = target: Mitogen-activated protein kinase 8 (Homo sapiens) (UniProt P45983); details: at 10 µM
# Description: Inhibition of Gst-tagged human JNK1a1 expressed in Escherichia coli at 10 uM
# [7] = target: Mitogen-activated protein kinase 11 (Homo sapiens) (UniProt Q15759); details: at 10 µM
# Description: Inhibition of Gst-tagged human SAPK2b/p38--beta-2 expressed in Escherichia coli at 10 uM
# [8] = target: T1, Mitogen-activated protein kinase 13 (Homo sapiens) (UniProt O15264); details: at 10 µM
# T1 sequence (whole entry): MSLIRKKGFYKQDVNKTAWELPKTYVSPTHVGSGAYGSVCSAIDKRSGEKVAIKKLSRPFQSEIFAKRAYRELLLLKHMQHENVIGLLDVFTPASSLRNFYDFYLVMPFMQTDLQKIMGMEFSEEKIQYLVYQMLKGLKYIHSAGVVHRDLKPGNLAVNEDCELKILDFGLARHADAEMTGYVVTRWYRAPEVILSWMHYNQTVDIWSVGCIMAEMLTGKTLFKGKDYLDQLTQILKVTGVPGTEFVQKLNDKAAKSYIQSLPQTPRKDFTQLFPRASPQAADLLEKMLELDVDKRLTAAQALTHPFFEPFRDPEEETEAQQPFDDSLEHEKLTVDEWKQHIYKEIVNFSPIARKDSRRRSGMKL
# Description: Inhibition of Gst-tagged human SAPK4/p38delta expressed in Escherichia coli at 10 uM
# [9] = species: Oryctolagus cuniculus; details: Muscle tissue, at 10 µM
# Description: Inhibition of MAPKAPK1b from rabbit skeletal muscle at 10 uM
# [10] = target: T2, MAP kinase-activated protein kinase 2 (Homo sapiens, UniProt P49137); details: at 10 µM
# Description: Inhibition of Gst-tagged human MAPKAPK2 expressed in Escherichia coli at 10 uM
# [11] = target: T3, Ribosomal protein S6 kinase alpha-5 (Homo sapiens, UniProt O75582); details: Sf9, at 10 µM
# Description: Inhibition of His-tagged human MSK1 expressed in Sf9 cells at 10 uM
# [12] = target: T4, MAP kinase-activated protein kinase 5 (Homo sapiens) (UniProt Q8IW41); details: Sf9, at 10 µM
# T4 sequence (whole entry): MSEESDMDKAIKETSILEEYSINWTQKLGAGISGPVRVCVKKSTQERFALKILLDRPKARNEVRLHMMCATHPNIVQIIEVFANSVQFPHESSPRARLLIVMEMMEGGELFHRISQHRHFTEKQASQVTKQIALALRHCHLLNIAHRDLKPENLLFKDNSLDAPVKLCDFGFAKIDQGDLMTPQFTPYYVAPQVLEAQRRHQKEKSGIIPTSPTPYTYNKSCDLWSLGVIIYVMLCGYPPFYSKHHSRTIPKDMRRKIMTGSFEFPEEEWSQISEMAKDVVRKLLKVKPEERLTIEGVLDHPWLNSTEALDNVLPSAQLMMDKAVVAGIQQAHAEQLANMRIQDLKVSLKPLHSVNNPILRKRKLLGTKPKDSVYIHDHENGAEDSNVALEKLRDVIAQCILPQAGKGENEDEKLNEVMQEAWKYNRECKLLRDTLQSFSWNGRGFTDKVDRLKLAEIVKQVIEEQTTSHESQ
# Description: Inhibition of His-tagged human PRAK expressed in Sf9 cells at 10 uM
# [13] = species: Bos taurus; details: at 10 µM
# Description: Inhibition of bovine heart PKA at 10 uM
# [14] = target: 3-phosphoinositide-dependent protein kinase 1 (Homo sapiens) (UniProt O15530); details: Sf21, at 10 µM
# [15] = target: RAC-alpha serine/threonine-protein kinase (Homo sapiens) (UniProt P31749); details: Sf9, at 10 µM
# Description: Inhibition of human PKBalpha expressed in SF9 cells at 10 uM
# [16] = target: T5, Serine/threonine-protein kinase Sgk1 (Homo sapiens) (UniProt O00141); details: Sf9, at 10 µM
# T5 sequence (whole entry): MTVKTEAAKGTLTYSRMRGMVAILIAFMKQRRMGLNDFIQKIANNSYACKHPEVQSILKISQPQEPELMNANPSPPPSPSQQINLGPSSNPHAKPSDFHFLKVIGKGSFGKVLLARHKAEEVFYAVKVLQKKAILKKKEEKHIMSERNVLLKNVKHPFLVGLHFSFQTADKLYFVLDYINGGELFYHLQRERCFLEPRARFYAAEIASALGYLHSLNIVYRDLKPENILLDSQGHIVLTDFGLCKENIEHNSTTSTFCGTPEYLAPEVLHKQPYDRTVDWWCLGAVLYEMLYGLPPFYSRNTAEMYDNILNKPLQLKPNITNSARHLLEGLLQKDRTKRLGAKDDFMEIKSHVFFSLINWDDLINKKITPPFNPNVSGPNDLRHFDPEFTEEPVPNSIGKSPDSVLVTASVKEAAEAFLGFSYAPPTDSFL
# Description: Inhibition of His-tagged human SGK expressed in Sf9 cells at 10 uM
# [17] = target: T6, Ribosomal protein S6 kinase beta-1 (Homo sapiens, UniProt P23443); details: at 10 µM
# Description: Inhibition of His-tagged human S6K1 expressed in Escherichia coli at 10 uM
# [18] = target: T7, Glycogen synthase kinase-3 beta (Homo sapiens, UniProt P49841); details: Sf21, at 10 µM
# Description: Inhibition of His-tagged human GSK3b expressed in Sf21 cells at 10 uM
# [19] = target: Rho-associated protein kinase 2 (Rattus norvegicus) (UniProt Q62868); details: Sf9, at 10 µM
# Description: Inhibition of rat ROCK2 expressed in Sf9 cells at 10 uM
# [20] = species: Rattus norvegicus; details: at 10 µM
# Description: Inhibition of rat liver AMPK at 10 uM
# [21] = target: T8, Casein kinase II (Homo sapiens) (UniProt P67870+P68400+P19784); details: Sf9, at 10 µM
# Description: Inhibition of His-tagged human CK2 expressed in Sf9 cells at 10 uM
# [22] = species: Oryctolagus cuniculus; details: Muscle tissue, at 10 µM; remark: listed apart in the source
# Description: Inhibition of PHK from rabbit skeletal muscle at 10 uM
# [23] = target: Tyrosine-protein kinase Lck (Homo sapiens) (UniProt P06239); details: Sf9, at 10 µM
# Description: Inhibition of His-tagged human LCK expressed in Sf9 cells at 10 uM
# [24] = target: T9, Serine/threonine-protein kinase Chk1 (Homo sapiens) (UniProt O14757); details: at 10 µM
# T9 sequence (whole entry): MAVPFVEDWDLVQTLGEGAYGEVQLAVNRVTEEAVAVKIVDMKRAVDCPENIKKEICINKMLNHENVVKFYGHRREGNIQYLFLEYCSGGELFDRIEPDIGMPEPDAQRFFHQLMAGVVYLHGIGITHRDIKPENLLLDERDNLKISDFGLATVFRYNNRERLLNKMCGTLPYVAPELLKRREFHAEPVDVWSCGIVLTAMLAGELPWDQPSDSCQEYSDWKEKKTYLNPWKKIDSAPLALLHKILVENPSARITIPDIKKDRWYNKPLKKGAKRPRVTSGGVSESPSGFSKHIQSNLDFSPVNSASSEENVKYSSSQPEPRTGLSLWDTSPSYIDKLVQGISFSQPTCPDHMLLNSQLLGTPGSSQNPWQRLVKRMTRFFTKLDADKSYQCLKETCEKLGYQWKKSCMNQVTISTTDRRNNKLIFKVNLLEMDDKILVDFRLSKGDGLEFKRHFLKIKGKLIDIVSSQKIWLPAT
# Description: Inhibition of His-tagged human CHK1 expressed in Escherichia coli at 10 uM
# [25] = target: [Pyruvate dehydrogenase (acetyl-transferring)] kinase isozyme 1, mitochondrial (Homo sapiens) (UniProt Q15118); assay: Inhibition of His-tagged human PDK1 expressed in Sf21 cells at 50 uM; details: values are per cent of control
# [26] = target: Rho-associated protein kinase 2 (Rattus norvegicus) (UniProt Q62868); assay: Inhibition of rat ROCK2 expressed in Sf9 cells at 50 uM; details: values are per cent of control
# [27] = target: Casein kinase II (Homo sapiens, UniProt P19784+P67870+P68400); assay: Inhibition of His-tagged human CK2 expressed in Sf9 cells
# [28] = target: Phosphatidylinositol 4,5-bisphosphate 3-kinase catalytic subunit alpha isoform (Bos taurus) (UniProt P32871); details: Sf9, 50 uM
# Description: Inhibition of His-tagged bovine PI3K expressed in Sf9 cells at 50 uM
# [29] = species: Rattus norvegicus; assay: Inhibition of rat liver AMPK at 50 uM; values are per cent of control
# [30] = species: Bos taurus; assay: Inhibition of bovine heart PKA at 50 uM; values are per cent of control
# [31] = species: Oryctolagus cuniculus; assay: Inhibition of PHK from rabbit skeletal muscle at 50 uM; values are per cent of control; details: Muscle tissue
# [32] = species: Oryctolagus cuniculus; assay: Inhibition of MAPKAPK1b from rabbit skeletal muscle at 50 uM; values are per cent of control; details: Muscle tissue
# [33] = target: RAC-alpha serine/threonine-protein kinase (Homo sapiens) (UniProt P31749); assay: Inhibition of human PKBalpha expressed in SF9 cells at 50 uM; values are per cent of control
# [34] = species: Oryctolagus cuniculus; assay: Inhibition of rabbit MKK1 expressed in Escherichia coli at 50 uM; values are per cent of control
# [35] = target: T5, Serine/threonine-protein kinase Sgk1 (Homo sapiens); assay: Inhibition of His-tagged human SGK expressed in Sf9 cells at 50 uM; values are per cent of control
# [36] = target: T8, Casein kinase II (Homo sapiens); assay: Inhibition of His-tagged human CK2 expressed in Sf9 cells at 50 uM; values are per cent of control
# [37] = target: T3, Ribosomal protein S6 kinase alpha-5; assay: Inhibition of His-tagged human MSK1 expressed in Sf9 cells at 50 uM; values are per cent of control
# [38] = target: T4, MAP kinase-activated protein kinase 5 (Homo sapiens); assay: Inhibition of His-tagged human PRAK expressed in Sf9 cells at 50 uM; values are per cent of control
# [39] = target: T7, Glycogen synthase kinase-3 beta; assay: Inhibition of His-tagged human GSK3b expressed in Sf21 cells at 50 uM; values are per cent of control
# [40] = target: T6, Ribosomal protein S6 kinase beta-1; assay: Inhibition of His-tagged human S6K1 expressed in Escherichia coli at 50 uM; values are per cent of control
# [41] = target: T9, Serine/threonine-protein kinase Chk1 (Homo sapiens); assay: Inhibition of His-tagged human CHK1 expressed in Escherichia coli at 50 uM; values are per cent of control
# [42] = target: T2, MAP kinase-activated protein kinase 2; assay: Inhibition of His-tagged human MAPKAPK2 expressed in Escherichia coli at 50 uM; values are per cent of control
# [43] = target: Protein kinase C alpha type (Homo sapiens, UniProt P17252); assay: Inhibition of His-tagged human PKCalpha expressed in Escherichia coli at 50 uM; values are per cent of control
# [44] = target: Mitogen-activated protein kinase 1 (Homo sapiens) (UniProt P28482); assay: Inhibition of His-tagged human MAPK2/ERK2 expressed in Escherichia coli at 50 uM; values are per cent of control
# [45] = target: Mitogen-activated protein kinase 11 (Homo sapiens) (UniProt Q15759); assay: Inhibition of His-tagged human SAPK2b/p38b2 expressed in Escherichia coli at 50 uM; values are per cent of control
# [46] = target: Mitogen-activated protein kinase 8 (Homo sapiens) (UniProt P45983); assay: Inhibition of His-tagged human JNK1a1/SAPK1c expressed in Escherichia coli at 50 uM; values are per cent of control
# [47] = target: T1, Mitogen-activated protein kinase 13 (Homo sapiens); assay: Inhibition of His-tagged human SAPK4/p38delta expressed in Escherichia coli at 50 uM; values are per cent of control
# T2 sequence (P49137 whole entry, looked up): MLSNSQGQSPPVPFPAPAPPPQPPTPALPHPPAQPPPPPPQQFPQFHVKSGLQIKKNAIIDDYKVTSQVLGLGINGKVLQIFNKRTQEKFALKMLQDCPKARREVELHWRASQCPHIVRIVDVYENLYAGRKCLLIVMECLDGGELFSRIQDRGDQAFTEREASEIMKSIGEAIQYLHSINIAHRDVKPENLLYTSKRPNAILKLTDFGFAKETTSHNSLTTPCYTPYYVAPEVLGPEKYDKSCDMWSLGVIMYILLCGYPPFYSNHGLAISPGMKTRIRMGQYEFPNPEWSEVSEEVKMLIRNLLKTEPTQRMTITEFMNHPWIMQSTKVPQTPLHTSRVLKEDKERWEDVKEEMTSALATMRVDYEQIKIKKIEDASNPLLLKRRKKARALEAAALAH
# T3 sequence (O75582 whole entry, looked up): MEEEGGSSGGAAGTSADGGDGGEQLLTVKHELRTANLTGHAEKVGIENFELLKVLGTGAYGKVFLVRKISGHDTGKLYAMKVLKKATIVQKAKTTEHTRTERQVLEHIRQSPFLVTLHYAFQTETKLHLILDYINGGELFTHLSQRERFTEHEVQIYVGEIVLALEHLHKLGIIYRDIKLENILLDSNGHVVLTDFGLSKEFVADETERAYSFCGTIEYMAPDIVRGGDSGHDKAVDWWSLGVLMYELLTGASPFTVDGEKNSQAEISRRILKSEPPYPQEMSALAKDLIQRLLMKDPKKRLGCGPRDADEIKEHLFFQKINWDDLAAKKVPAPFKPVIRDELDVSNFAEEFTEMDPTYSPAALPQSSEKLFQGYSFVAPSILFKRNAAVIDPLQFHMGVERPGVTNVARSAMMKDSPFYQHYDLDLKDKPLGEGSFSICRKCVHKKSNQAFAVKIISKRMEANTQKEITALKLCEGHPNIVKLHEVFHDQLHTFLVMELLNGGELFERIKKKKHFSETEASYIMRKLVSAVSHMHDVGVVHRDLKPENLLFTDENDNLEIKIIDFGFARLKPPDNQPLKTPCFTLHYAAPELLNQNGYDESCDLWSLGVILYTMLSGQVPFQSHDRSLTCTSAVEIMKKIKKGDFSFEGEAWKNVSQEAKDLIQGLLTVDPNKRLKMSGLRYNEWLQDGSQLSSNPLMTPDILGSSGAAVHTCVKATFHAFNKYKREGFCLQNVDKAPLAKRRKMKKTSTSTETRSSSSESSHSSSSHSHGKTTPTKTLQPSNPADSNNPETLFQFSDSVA
# Chain of Mitogen-activated protein kinase 1 (Homo sapiens) (P28482 whole entry): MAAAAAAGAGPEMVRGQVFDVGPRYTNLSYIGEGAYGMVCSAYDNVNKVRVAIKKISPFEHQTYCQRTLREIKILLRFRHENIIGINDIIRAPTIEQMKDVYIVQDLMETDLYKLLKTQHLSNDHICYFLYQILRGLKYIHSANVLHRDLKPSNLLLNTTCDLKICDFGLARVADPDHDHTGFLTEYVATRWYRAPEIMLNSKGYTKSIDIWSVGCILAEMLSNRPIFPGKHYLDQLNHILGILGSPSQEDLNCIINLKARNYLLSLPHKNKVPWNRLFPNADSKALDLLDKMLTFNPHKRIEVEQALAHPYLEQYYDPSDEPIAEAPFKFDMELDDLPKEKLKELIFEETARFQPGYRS
# Chain of RAC-alpha serine/threonine-protein kinase (Homo sapiens) (P31749 whole entry): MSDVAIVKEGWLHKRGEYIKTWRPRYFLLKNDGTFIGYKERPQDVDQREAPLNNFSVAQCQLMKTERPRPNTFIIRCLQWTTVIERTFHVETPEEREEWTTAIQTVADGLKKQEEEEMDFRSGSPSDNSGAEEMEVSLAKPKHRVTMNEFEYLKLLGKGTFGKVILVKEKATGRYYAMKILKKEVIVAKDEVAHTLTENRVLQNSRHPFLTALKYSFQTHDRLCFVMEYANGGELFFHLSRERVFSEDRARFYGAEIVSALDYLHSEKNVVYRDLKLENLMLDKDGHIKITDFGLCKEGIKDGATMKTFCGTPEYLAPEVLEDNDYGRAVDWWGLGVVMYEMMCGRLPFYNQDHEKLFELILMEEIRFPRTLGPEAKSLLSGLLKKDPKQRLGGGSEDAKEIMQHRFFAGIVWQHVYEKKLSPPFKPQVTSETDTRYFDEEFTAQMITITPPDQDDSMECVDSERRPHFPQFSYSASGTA
# Chain of Mitogen-activated protein kinase 8 (Homo sapiens) (P45983 whole entry): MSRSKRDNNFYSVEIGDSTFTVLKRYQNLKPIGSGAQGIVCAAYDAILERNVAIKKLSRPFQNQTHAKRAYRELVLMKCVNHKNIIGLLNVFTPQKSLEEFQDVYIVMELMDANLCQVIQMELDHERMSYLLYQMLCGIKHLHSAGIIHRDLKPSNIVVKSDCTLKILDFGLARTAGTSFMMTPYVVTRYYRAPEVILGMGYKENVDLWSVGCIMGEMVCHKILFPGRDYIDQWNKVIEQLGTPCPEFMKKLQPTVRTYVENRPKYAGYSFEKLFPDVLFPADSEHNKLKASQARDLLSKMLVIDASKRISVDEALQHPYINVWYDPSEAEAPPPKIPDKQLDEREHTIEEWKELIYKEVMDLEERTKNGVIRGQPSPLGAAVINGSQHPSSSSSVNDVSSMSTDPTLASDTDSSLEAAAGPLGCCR
# T6 sequence (P23443 whole entry, looked up): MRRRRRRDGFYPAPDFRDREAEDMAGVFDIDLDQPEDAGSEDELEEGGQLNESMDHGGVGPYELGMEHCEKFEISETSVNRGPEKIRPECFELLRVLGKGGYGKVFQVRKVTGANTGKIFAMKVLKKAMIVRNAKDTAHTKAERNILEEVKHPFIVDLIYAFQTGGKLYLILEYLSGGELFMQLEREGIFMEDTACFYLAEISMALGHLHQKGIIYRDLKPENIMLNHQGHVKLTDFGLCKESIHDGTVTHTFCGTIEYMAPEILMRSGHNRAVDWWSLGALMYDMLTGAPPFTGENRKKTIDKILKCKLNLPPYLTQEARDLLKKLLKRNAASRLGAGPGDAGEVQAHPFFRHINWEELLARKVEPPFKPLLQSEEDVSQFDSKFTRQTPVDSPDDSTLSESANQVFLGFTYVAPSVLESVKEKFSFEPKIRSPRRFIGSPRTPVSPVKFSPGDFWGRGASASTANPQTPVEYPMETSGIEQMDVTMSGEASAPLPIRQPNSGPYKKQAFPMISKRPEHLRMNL
# Chain of Mitogen-activated protein kinase 11 (Homo sapiens) (Q15759 whole entry): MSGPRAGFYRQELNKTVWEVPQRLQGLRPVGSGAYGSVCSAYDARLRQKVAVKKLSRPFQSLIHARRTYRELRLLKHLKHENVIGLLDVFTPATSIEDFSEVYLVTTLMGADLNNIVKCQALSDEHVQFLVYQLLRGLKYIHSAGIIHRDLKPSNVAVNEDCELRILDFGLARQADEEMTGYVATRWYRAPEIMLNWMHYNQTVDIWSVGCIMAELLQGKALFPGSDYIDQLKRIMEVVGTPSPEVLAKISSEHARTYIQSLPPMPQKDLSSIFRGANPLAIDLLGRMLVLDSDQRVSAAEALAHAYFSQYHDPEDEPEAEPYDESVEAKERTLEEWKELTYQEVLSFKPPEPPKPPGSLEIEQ
# Chain of Rho-associated protein kinase 2 (Rattus norvegicus) (Q62868 whole entry, looked up): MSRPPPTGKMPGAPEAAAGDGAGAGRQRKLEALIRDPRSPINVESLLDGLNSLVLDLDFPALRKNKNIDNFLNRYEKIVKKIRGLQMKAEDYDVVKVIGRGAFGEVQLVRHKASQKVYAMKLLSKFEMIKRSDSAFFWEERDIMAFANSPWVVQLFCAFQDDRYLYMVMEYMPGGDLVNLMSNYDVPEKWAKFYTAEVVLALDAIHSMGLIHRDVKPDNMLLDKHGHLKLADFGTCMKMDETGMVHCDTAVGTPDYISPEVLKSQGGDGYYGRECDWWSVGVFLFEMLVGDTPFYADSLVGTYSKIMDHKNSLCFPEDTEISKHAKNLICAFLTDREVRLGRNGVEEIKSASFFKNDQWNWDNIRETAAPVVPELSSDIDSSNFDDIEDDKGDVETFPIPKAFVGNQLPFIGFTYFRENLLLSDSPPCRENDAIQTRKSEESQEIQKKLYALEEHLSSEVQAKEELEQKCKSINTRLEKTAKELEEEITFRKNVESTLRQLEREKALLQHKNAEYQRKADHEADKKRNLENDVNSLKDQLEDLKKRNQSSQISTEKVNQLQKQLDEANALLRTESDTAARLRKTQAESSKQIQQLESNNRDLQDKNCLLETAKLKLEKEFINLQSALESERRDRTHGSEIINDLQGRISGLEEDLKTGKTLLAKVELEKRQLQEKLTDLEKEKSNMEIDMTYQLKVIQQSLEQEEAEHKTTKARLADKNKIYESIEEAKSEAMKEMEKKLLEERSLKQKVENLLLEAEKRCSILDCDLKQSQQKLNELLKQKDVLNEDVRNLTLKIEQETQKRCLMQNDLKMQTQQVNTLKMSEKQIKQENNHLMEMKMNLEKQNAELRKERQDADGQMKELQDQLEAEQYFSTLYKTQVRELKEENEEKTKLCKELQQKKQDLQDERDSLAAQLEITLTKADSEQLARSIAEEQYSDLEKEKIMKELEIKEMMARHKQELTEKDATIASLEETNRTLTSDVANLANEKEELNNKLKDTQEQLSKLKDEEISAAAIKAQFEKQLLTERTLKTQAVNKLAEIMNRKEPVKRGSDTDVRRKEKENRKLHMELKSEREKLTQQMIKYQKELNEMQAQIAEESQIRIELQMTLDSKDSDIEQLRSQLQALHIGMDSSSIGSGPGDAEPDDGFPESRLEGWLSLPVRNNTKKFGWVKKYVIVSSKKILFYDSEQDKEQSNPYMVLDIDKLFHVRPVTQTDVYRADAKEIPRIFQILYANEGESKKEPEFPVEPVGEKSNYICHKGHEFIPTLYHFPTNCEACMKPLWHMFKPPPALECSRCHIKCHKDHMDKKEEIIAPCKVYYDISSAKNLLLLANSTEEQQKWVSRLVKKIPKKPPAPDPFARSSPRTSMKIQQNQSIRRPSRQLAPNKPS
smiles,measurement,setting,value
CN([C@@H](Cc1ccc(OS(=O)(=O)c2cccc3cnccc23)cc1)C(=O)N1CCN(c2ccccc2)CC1)S(=O)(=O)c1cccc2cnccc12,inhibition,[1],0%
same,inhibition,[2],96%
same,IC50,[3],0.5 µM
same,residual activity,[4],101%
same,residual activity,[5],92%
same,residual activity,[6],104%
same,residual activity,[7],98%
same,residual activity,[8],110%
same,"level, % of control",[9],89%
same,residual activity,[10],59%
same,residual activity,[11],81%
same,residual activity,[12],36%
same,residual activity,[13],94%
same,residual activity,[14],70%
same,residual activity,[15],67%
same,residual activity,[16],78%
same,residual activity,[17],93%
same,residual activity,[18],38%
same,residual activity,[19],88%
same,residual activity,[20],97%
same,residual activity,[21],103%
same,"level, % of control",[22],106%
same,residual activity,[23],92%
same,residual activity,[24],104%
O=c1cc(N2CCOCC2)oc2c(-c3ccccc3)cccc12 [LY-294002],residual activity,[25],76%
same,residual activity,[26],104%
same,IC50,[27],6.9 µM
same,residual activity,[28],13%
same,residual activity,[29],103%
same,residual activity,[30],91%
same,"level, % of control",[31],44%
same,"level, % of control",[32],70%
same,residual activity,[33],60%
same,residual activity,[34],101%
same,residual activity,[35],72%
same,residual activity,[36],18%
same,residual activity,[37],83%
same,residual activity,[38],68%
same,residual activity,[39],53%
same,residual activity,[40],81%
same,residual activity,[41],90%
same,residual activity,[42],74%
same,residual activity,[43],91%
same,residual activity,[44],114%
same,residual activity,[45],98%
same,residual activity,[46],108%
same,residual activity,[47],94%
